In patent US11911353B2, “Fatty acid synthase inhibitor and application thereof” (Jiangnan University, priority 2019, dated 2024):

What was measured:
[1] = molecular target: T1, fatty acid synthase (FASN) in colon cancer cells HCT116 (Homo sapiens, UniProt P49327); test: FASN enzyme activity detection in treated HCT116 cells (NADPH absorbance at 340 nm); type: cell-based; conditions: HCT-116, 4 hours of incubation, read-out: FASN enzyme activity inhibition rate (%)
T1 construct: endogenous in cells; host or cells: HCT116 colon cancer cells

[2] = system: tumor cells 22RV1, PC-3, HT-29, Hela, Hep G2, CaCo-2 and HCT116; test: MTT proliferation of various tumor cells at single concentration (FIG. 2); type: cell-based; conditions: 10 μM, 72 hours, 7 different tumor cells
Excerpt: Cell survival rate=(OD570−OD630)/(OD570 negative control−OD630 negative control); wherein, OD570: OD570 value of each treatment group; OD630: OD630 value of each treatment group; OD570 control: OD570 value of the negative control group; OD630 control: OD630 value of the negative control group.

[3] = system: prostate cancer cells PC3; test: Cell division of PC3 cells, CFSE flow cytometry (FIG. 4); type: cell-based; conditions: 10 μM, 24 hours, versus cells without compound
Excerpt: […]

[4] = system: prostate cancer cells PC-3; test: Fatty acid content and composition by GC/MS, PC-3 (FIG. 5); type: cell-based; conditions: PC-3, 20 μM, 24 hours
Excerpt: […]

transplanted tumors PC3 = test: Growth of transplanted tumors PC3 in nude mice (FIG. 8); type: in vivo; conditions: 5 mg/kg intraperitoneally every 2 days, four weeks
Excerpt: […]

T1 sequence (P49327 whole entry): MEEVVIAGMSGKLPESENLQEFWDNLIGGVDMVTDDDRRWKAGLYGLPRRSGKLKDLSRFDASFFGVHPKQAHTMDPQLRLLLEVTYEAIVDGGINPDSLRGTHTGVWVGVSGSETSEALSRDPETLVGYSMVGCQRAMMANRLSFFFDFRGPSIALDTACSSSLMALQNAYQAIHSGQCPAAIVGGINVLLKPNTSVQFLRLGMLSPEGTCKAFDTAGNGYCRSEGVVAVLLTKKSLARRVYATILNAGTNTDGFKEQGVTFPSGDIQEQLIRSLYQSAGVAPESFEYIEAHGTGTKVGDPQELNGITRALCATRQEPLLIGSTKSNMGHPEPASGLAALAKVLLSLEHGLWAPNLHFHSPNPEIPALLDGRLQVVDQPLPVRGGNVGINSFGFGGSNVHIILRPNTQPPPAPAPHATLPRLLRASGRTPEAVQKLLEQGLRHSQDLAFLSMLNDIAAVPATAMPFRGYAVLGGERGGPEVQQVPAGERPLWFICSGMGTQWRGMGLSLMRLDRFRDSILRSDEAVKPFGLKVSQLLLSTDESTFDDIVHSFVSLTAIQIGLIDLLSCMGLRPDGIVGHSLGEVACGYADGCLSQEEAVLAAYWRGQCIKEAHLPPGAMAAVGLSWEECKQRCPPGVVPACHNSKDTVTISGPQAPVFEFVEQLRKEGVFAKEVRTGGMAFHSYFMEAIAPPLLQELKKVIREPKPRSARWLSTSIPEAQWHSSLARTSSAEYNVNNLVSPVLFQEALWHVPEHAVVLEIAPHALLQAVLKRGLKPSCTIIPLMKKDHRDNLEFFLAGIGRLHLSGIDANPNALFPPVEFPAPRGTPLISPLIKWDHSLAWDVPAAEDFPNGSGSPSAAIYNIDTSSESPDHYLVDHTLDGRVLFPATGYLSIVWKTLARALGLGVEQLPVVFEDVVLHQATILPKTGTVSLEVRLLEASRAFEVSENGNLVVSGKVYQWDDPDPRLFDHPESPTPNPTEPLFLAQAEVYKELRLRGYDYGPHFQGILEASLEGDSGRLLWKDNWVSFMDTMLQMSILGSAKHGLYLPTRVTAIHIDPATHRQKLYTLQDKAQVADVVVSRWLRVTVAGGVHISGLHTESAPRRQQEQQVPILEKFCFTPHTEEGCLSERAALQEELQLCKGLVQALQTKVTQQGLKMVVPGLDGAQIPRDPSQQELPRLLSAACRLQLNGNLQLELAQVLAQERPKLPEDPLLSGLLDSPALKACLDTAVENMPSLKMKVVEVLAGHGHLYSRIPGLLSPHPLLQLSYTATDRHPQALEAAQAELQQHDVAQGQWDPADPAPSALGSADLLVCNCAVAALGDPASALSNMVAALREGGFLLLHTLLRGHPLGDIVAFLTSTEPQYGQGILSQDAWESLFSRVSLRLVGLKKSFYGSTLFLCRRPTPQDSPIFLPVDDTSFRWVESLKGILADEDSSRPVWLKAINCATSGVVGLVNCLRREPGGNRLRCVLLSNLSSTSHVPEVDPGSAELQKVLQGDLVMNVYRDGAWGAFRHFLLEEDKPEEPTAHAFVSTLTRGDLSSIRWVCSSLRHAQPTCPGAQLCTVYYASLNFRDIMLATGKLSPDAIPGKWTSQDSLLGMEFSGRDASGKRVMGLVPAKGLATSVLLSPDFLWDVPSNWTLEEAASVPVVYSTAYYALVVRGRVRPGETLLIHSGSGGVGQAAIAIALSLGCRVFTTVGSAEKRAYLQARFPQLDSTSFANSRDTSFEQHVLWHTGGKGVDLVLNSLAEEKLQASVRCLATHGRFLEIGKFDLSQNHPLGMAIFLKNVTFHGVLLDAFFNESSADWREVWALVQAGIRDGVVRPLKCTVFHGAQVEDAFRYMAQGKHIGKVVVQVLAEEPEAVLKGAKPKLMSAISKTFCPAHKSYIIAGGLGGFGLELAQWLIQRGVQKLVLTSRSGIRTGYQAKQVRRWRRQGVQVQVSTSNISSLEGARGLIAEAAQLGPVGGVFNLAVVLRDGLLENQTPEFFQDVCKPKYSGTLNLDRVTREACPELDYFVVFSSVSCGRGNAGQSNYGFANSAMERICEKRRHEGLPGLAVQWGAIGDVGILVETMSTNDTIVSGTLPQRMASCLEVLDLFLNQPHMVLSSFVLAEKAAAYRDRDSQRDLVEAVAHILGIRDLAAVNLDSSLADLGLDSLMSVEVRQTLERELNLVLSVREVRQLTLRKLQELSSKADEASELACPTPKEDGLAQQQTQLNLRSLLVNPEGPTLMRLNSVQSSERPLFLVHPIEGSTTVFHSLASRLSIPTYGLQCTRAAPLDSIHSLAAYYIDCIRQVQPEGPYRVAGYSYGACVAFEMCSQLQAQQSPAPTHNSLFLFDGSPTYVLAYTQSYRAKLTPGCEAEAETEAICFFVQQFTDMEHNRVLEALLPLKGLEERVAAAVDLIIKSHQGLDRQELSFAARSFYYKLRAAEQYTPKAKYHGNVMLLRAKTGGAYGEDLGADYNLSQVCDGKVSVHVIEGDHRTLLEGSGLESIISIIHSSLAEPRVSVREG

O=C(CCCC(=O)Nc1ccc(Br)cc1)N/N=C/c1cc(Br)ccc1O [Compound I-1]
inhibition at 20 µM [1]: 58.6% | effect on proliferation of tumor cells [2]: significantly improved inhibitory effect on tumor proliferation | split peak number (cell division) [3]: significantly reduced | fatty acid content of 16:0 [4]: lower than that of the control group | total fatty acid content [4]: significantly lower than that of the control group | HE staining of transplanted tumor tissue (transplanted tumors PC3; FIG. 8B): dark dotted area is significantly reduced | tumor mass of mice (transplanted tumors PC3; PC3 transplanted tumors): significantly lower than that of the control group
